Measured values as given in patent publication US7678549B2, “Polyphenol inhibition of nucleoside diphosphate kinase-B activity and cancer metastasis” (Research Development Foundation, priority 2001, dated 2010).

Columns and labels:
[1] = target: T1, tumor cell-secreted nucleoside diphosphate kinase-B (NDPK-B, Nm23-H2) (Homo sapiens, UniProt P22392); test: NDPK-B kinase activity assay (ADP to ATP with GTP as phosphoryl donor, luciferin-luciferase); format: biochemical; details: for Km: KM of NDPK-B for ADP in presence of the inhibitor; for IC50 / Inhibition: inhibition of NDPK-B activity; for Inhibition: Yes/No, conc. tested differs per compound (0.3-10,000 μM); for inhibition of nucleoside diphosphate kinase-B activity (in words): summary of Table 1
T1 construct: Partially purified tumor cell-secreted nucleoside diphosphate kinase-B was incubated with ADP and GTP; endogenous in cells; host or cells: human tumor cell lines MDA-MB-435s, Calu-1, WiDr and PC-3; concentrated conditioned Krebs buffer
Method: The human tumors MDA-MB-435s (breast ductal carcinoma), Calu-1 (metastatic lung carcinoma), WiDr (colorectal carcinoma), and PC-3 (prostatic carcinoma) were grown to confluence in DMEM with 10% heat-inactivated FBS and antibiotics. Media was replaced with Krebs buffer (25 mM Hepes, pH 7.4) and incubated at 37° C. with gentle rocking for 4 hours. The supernatant was removed and concentrated by spin concentrators. Nucleoside diphosphate kinase activity of the retentate was assayed for activity and stored at −20° C.
Conversion of ADP to ATP, using GTP as the phosphoryl donor, was quantified using the Luciferin-Luciferase ATP assay as we have previously described (9). All necessary steps were taken to eliminate and account for interference between potential nucleoside diphosphate kinase-B inhibitors and the luciferase in the assay.
Partially purified tumor cell-secreted nucleoside diphosphate kinase-B was incubated with ADP and GTP in the presence of varying concentrations of putative nucleoside diphosphate kinase inhibitors or putative metastasis/angiogenesis inhibitors and the resulting ATP generated was measured by chemiluminescence using the luciferin-luciferase assay. […] Molecular modeling studies support these kinetic assumptions (data not shown).

caspase-3 = test: Caspase-3 activity in staurosporine-treated endothelial cells; format: cell-based, guinea pig; details: for caspase-3 activity (DEVDase): near-confluent monolayers of endothelial cells, cyclodextrin as pretreatment before staurosporine; for caspase-3 fluorescent substrate pattern in intact cells: staurosporine for 3 hours, with or without cholesterol-altering agents
Method: Control cells received 0.05% DMSO final as a control for drug vehicle (n=4). Clarified supernatants from detergentsolubilized cells are assayed for DEVDase activity using the colorimetric caspase-3 substrate DEVD-pnitroaniline.
The sequestration of cholesterol from the plasma membrane can disrupt the localization of proteins within caveolae and lipid rafts, which has shown to interrupt signaling pathways.
Using a fluorescent substrate, caspase-3 activity can b e visualized in intact cell preparations.

[2] = test system: Endothelial cells (CD31+ cells from guinea pig hearts); test: Angiogenesis assay (endothelial tube formation on EHS matrix); format: cell-based; details: 30 and 100 μM, ~16 hrs, endothelial tubes on EHS matrix
Method: Endothelial cells (CD31^+ cells from guinea pig hearts) were plated on a matrix composed of basement proteins from the Engelbreth Holm-Swarm (EHS) mouse tumor. The cells were incubated for 16 hrs in Complete Dulbecco's Modified Eagle Medium (CDMEM) with added tea catechins ellagic acid (EA), epigallocatechin gallate (EGCG), and epicatechin gallate (ECG). Bright field images were taken using a Nikon phase-contrast microscope and a Pulnix digital camera. […] Data are representative of two experiments. Fluorescence activated cell sorting (FACS) was used to select cardiac endothelial cells positive for the PECAM marker CD31. Endothelial cells were plated on a matrix of basement proteins from the Engelbreth Holm-Swarm (EHS) mouse tumor. A complete DME media containing 10% FBS was used to maintain endothelial cultures. Differentiation of the cells into endothelial tubes was monitored in the presence and absence of the compounds of interest.

[3] = test system: guinea pig thoracic aorta; test: Thoracic aorta in organ bath, measurement of tension; details: for effect on norepinephrine-contracted aorta: added at peak norepinephrine contraction, endothelium present
[4] = test system: Human endothelial cells monolayer; test: Tumor cell-induced paracellular holes in endothelial cell monolayers; format: cell-based; details: added at the same time as tumor cells
Text: Additional studies aimed at direct analysis of the ability of polyphenolic catechin gallates to prevent breast cancer cell entry into and exit from vessels has been addressed by examining the ability of tumor cells to induce paracellular passages in endothelial cells monolayers in culture. Human endothelial cells grown to confluence in culture can be examined as a model of capillary intravasation or extravasation as in cases of human breast cancer metastasis in vivo, by examining their ability to form large (>30 μm) holes between cells (paracellular holes). […] Addition of tumor cells on top of the monolayer at concentrations of 1 cancer cell per 10,000 endothelial cells leads to the wide-spread appearance of large paracellular holes in the monolayer within 15 minutes of application of tumor cells. […] The effect is complete at 30 μM epigallocatechin gallate. Careful quantification of the presence of paracellular holes is underway using video imaging.

T1 sequence (P22392 whole entry): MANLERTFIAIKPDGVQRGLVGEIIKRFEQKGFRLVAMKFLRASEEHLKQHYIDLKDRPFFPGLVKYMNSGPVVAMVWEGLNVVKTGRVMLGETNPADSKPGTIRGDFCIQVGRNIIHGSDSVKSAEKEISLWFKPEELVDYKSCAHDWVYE

Molecule | IC50 [1] [mM] | Inhibition [1] | inhibition of nucleoside diphosphate kinase-B activity (in words) [1] | further results
Nc1ncnc2c1ncn2[C@@H]1O[C@H](COP(=O)(O)OS(=O)(=O)O)[C@@H](OP(=O)(O)O)[C@H]1O [PAPS] | 0.5 | Yes | relatively low potency | Km [1]: 7.1 ± 1.4 µM
CN[C@@H]1C[C@H]2O[C@@](C)([C@@H]1OC)n1c3ccccc3c3c4c(c5c6ccccc6n2c5c31)C(=O)NC4 [Staurosporine] |  |  |  | caspase-3 activity (DEVDase) (caspase-3): induce caspase-3 activity; caspase-3 fluorescent substrate pattern in intact cells (caspase-3): punctate fluorescence
fillipin III |  |  |  | caspase-3 fluorescent substrate pattern in intact cells (caspase-3): global diffuse fluorescence
O=c1c(-c2ccc(O)cc2)coc2cc(O)cc(O)c12 [Genestein, genestein] |  | No |  | 
O=c1oc2c(O)c(O)cc3c(=O)oc4c(O)c(O)cc1c4c23 [Ellagic Acid, hexahydroxydiphenic acid dilactone] | 0.023 | Yes | highest inhibitory effect | inhibition of angiogenesis [2]: dose-dependent inhibition of angiogenesis
Nc1ncnc2c1nc(Cl)n2[C@@H]1O[C@@H]2COP(=O)(O)O[C@H]2[C@H]1O [8-Cl-cAMP] |  | Yes | relatively low potency | Km [1]: 7.5 ± 1.5 µM; IC50 ([1]; value in mM): ~1 mM
O=C(O[C@@H]1Cc2c(O)cc(O)cc2O[C@@H]1c1ccc(O)c(O)c1)c1cc(O)c(O)c(O)c1 [ECG, epicatechin gallate] | 0.17 | Yes |  | inhibition of angiogenesis [2]: dose-dependent inhibition of angiogenesis
β methyl-cyclodextrin |  |  |  | caspase-3 activity (DEVDase) (caspase-3): enhances enzymatic activity; caspase-3 fluorescent substrate pattern in intact cells (caspase-3): global diffuse fluorescence
Oc1cc(O)c2c(c1)O[C@H](c1cc(O)c(O)c(O)c1)[C@H](O)C2 [EGC, epigallocatechin] |  | No | inhibited | 
Oc1ccc(C=Cc2cc(O)cc(O)c2)cc1 [Resveratrol, resveratrol] |  | No |  | 
O=c1c(O)cccc2cc(O)c(O)c(O)c12 [Purpurogallin] | 0.6 | Yes |  | 
NC[C@H](O)c1ccc(O)c(O)c1 [norepinephrine] |  |  |  | contraction of aorta ([3]; addition to resting vessel): contraction that is stable over time
CSc1nc(N)c2ncn([C@@H]3O[C@H](COP(=O)(O)OP(=O)(O)OP(=O)(O)O)[C@@H](O)[C@H]3O)c2n1 [2-methyl thio-ATP] |  |  |  | effect on norepinephrine-contracted aorta [3]: completely relaxes
Cc1cn([C@H]2C[C@H](N=[N+]=[N-])[C@@H](CO)O2)c(=O)[nH]c1=O [AZT] |  | No |  | 
O=C(O[C@@H]1Cc2c(O)cc(O)cc2O[C@@H]1c1cc(O)c(O)c(O)c1)c1cc(O)c(O)c(O)c1 [EGCG, epigallocatechin gallate] | 0.15 | Yes | inhibited | formation of paracellular passages (holes >30 μm) induced by tumor cells ([4]; 1 to 100 μM): prevents the formation of the paracellular passages in a dose-dependent fashion; concentration at which prevention of paracellular passages is complete [4]: 30 µM; inhibition of angiogenesis [2]: dose-dependent inhibition of angiogenesis; effect on norepinephrine-contracted aorta [3]: further small contraction of the vessel followed by relaxation; effect on norepinephrine-contracted aorta ([3]; listed as epigallocatechin gallate): dramatic relaxation; effect on aorta in the absence of endothelium ([3]; norepinephrine-contracted, endothelium absent): both contraction and relaxation are lost; EGCG-dependent relaxation after pretreatment with L-NAME ([3]; pretreatment with nitric oxide synthase inhibitor L-NAME): blocks epigallocatechin gallate-dependent relaxation; Km [1]: 9.7 ± 1.8 µM
